Source: patent US20050281814A1, “Combination radiation therapy and chemotherapy in conjunction with administration of growth factor receptor antibody” (priority 2000, published 2005)

Assays:
MiaPaCa-2 cells [1] = assay: In vitro cell proliferation, MiaPaCa-2; format: cell-based, human
From the text: (§1) Various combinations of treatment modality were studied in vitro.

[2] = tested on: Mia-PaCa-2 human pancreatic cancer cells; assay: MiaPaCa-2 xenograft tumor therapy study with IMC-C225, gemcitabine and radiation; format: in vivo, athymic nude mice; settings: s.c. Mia-PaCa-2 tumors, n=8/group, RT 3 Gy q6d
Method: Athymic nude mice were implanted subcutaneously with 2×10^7 Mia-PaCa-2 cells mixed with Matrigel.
MiaPaCa-2 cells were mixed with Matrigel (1:1) and 2×10^7 cells injected s.c. into athymic nude mice on day 0. […] Four groups of mice received gemcitabine (120 mg/kg) i.v. on days 23, 29, 35, 41, 47, and 54. In four groups of mice, tumors were exposed to six fractions of 3 Gy ^60Co radiation on days 24, 30, 36, 42, 48, and 55. The results are presented as the change in tumor size relative to baseline size on day 22. The MiaPaCa-2 experiment was terminated after 333 days.
In the animal model tumor therapy studies, multiple endpoints were examined and appropriate statistical tests were conducted to address differences between treatment groups with respect to each endpoint. The endpoints included, the size of the tumor, which was computed for each tumor at each time period, percent of original tumor size, computed for each tumor at each time point after baseline, regression, time to regression, and time that the tumor size reached twice the original tumor size (time to double). Inferences are made on the true median rather than the mean response, i.e. median tumor size or median time to double in size.

BxPC-3 cells = assay: In vitro cell proliferation, BxPC-3; format: cell-based, human
MiaPaCa-2 cells [3] = assay: Apoptotic cell death in vitro (annexin V-FITC), MiaPaCa-2; format: cell-based, human; settings: MiaPaCa-2, p-value<0.05; not enhanced by any other treatment
From the text: Early stages of apoptosis were identified using an annexin V-FITC apoptosis detection kit (BioVision Research Products, Palo Alto, Calif.). In studies of radiation cell survival assays, survival data was fitted to the linear quadratic (LQ) and single hit multi-target (SHMT) radiobiological models using Fit v. 2.4 software kindly provided by Dr. N. Albright, University of California at San Francisco.
as §1

SW948 cells = assay: SW948 colon tumor xenograft study with IMC-C225, CPT-11 and RT; format: in vivo, athymic nude mice; settings: s.c. SW948 tumors, n=7/group, RT 3 Gy q6d

SMILES	cell proliferation, combination of radiation (3 Gy) and gemcitabine (MiaPaCa-2 cells [1]; MiaPaCa-2)	inhibition of cell growth (MiaPaCa-2 cells [1]; MiaPaCa-2, 24 h exposure to the IC50 dose of gemcitabine)	mean tumor size doubling time ([2]; IMC-C225 1 mg q3d×12, GEM 120 mg/kg q6d) [days]	complete tumor regressions ([2]; IMC-C225 1 mg q3d×12 i.p., GEM 120 mg/kg q6d, regressions/animals)	cell proliferation, combination of radiation (3 Gy) and gemcitabine (BxPC-3 cells; BxPC-3)	inhibition of cell growth (BxPC-3 cells; BxPC-3, 24 h exposure to the IC50 dose of gemcitabine)	apoptotic cell death (MiaPaCa-2 cells [3])	mean tumor size doubling time (SW948 cells; IMC-C225 1 mg q3d×12, CPT-11 33 mg/kg q4d) [days]	complete tumor regressions (SW948 cells; IMC-C225 1 mg q3d×12 i.p., CPT-11 33 mg/kg i.v. q4d, regressions/animals)
Nc1ccn([C@@H]2O[C@H](CO)[C@@H](O)C2(F)F)c(=O)n1 [gemcitabine]	decrease in cell proliferation	approximately 45%	22	0/8	decrease in cell proliferation	approximately 55%	small but significant increase	–	–
CCc1c2c(nc3ccc(OC(=O)N4CCC(N5CCCCC5)CC4)cc13)-c1cc3c(c(=O)n1C2)COC(=O)[C@]3(O)CC [CPT-11, irinotecan]	–	–	–	–	–	–	–	57	0/7
